Entries after “also recorded” stand apart in the source; their conditions may differ. Where two headings read alike, the source gives them in different places.
Experiments:
RUMGNA_01526 [1] = biological target: T1, RUMGNA_01526 (Mediterraneibacter gnavus, UniProt A7B1V0); assay: Inhibition of RUMGNA_01526 tryptamine production by (S)-α-FMT, progress curves; type: biochemical, Ruminococcus gnavus; conditions: RUMGNA_01526, 2.5 mM Trp
T1 construct: His6 (N); made in house; host or cells: E. coli BL21 (DE3)
Excerpt: (§1) Progress curves were fitted to the equation [P]=(vi/kobs)(1−exp(−kObst)), where P is the product formed at time t, vi is the initial velocity, and kobs is the apparent first-order rate constant for enzyme inactivation. The kobs were plotted versus inhibitor concentration and fitted to the equation kobs=kinact[I]/(Kapp+[I]), where Kapp is the apparent dissociation constant of the reversible enzyme-inhibitor complex, and kinact is the first-order rate constant for apparent irreversible conversion of the enzyme-inhibitor complex to covalently bound complex. Ki values were calculated using the equation Ki=Kapp/(1+[tryptophan])/Km,Trp) using experimentally determined Km values for tryptophan (Schirmer et al., Proc. Natl. Acad. Sci. USA, 103(11):4234-4239 (2006)).
(§2) The production of tryptamine was measured by HPLC in the presence of various concentrations of inhibitor over 30 minutes and progress curves of the reaction were analyzed to assess the kinetics of inhibition.

CLOSPO_02083 [2] = biological target: T2, CLOSPO_02083 (Clostridium sporogenes, UniProt J7SZ64); assay: Inhibition of CLOSPO_02083 tryptamine production by (S)-α-FMT, progress curves; type: biochemical; conditions: CLOSPO_02083, 10 mM Trp
T2 construct: His6 (N); made in house; host or cells: E. coli BL21 (DE3)
T2 sequence (J7SZ64 whole entry): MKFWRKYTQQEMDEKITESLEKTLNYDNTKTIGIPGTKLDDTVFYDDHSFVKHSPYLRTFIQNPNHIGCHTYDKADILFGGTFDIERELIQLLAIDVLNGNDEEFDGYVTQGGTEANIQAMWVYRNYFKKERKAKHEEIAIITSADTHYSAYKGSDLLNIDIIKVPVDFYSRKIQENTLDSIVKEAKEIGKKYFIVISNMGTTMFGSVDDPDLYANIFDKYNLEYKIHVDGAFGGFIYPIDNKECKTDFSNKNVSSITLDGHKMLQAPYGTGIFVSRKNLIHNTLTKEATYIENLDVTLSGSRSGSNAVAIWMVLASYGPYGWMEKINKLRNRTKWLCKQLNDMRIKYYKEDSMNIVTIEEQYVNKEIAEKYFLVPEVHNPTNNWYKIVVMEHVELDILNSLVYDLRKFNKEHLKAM
Excerpt: as §1, §2

[3] = test system: proximal colon, stripped of external muscle layers; assay: Ussing chamber short circuit current of proximal colon from GF, HM and CR mice; conditions: for EC50: Mus musculus; for EC50 / Emax (Δ Isc): serosal; for cumulative concentration response curves (intestinal secretion): serosal application, GF vs HM and CR mice
Method: Colonic mucosal transepithelial resistance (TER) was measured at the beginning of each experiment and FITC Dextran (4 k Da) flux was determined from the linear fit of samples obtained from the serosal side every 5 minutes for 30 minutes after adding 1 mg/mL FITC-Dextran to the mucosal side. Change in short circuit current (Δ lsc) was determined in response to electrical field stimulation (EFS) using foil electrodes on the submucosal side (30-150V, 100 0.5 ms pulses at 1-2 Hz). There was no significant difference in Δ lsc between GF and HM in response to EFS at 1 Hz (138±42 vs 202±71 μA/cm^2; n=4; p>0.05) or 2 Hz (180±28 vs 252±70 μA/cm^2; n=4; p>0.05).
Acetylcholine (Ach) in increasing concentrations (0.01-300 μM) on the serosal side was used as a control for tissue reactivity. Cumulative concentration response curves induced by serosal ACh were not different between GF and HM as evident by similar Emax (261±38 vs 299±27 μA/cm^2; n=5; p>0.05) and EC50 (20.6±3 vs 22.7±9 μM) values.

[4] = test system: tryptophan hydroxylase 1 (Tph1) mRNA expression in BON cells
Method: Cells were plated at 1×10^5 per ml and grown to 90% confluency in 12-well culture plates. Culture wells were then treated (in triplicate) with tryptamine in media for 6 hours, fixed in RNA Protect (Qiagen) and subjected to qRT-PCR.

CLOSPO_02083 [5] = biological target: T2, CLOSPO_02083; type: biochemical; conditions: for decarboxylation of Phe by CLOSPO_02083: up to 90 mM substrate, 60 minutes
Method: (§3) Reaction mixtures contained 50 mM sodium phosphate pH 6.5, 300 mM NaCl, and […] PLP. Reactions were initiated by the addition of enzyme and terminated by quenching aliquots with 1 volume of MeOH and performed at 37° C. All substrates purchased from Sigma-Aldrich.
(§4) Under the same buffer and reaction conditions, the kinetic parameters for the decarboxylation of phenylalanine by RUMGNA_01526 were determined by adding RUMGNA_01526 to a final concentration of 500 nM, and the concentration of phenylalanine varied from 5-80 mM. Reactions proceeded for 10 minutes. The kinetic parameters for the decarboxylation of tryptophan by CLOSPO_02083 were determined by adding CLOSPO_02083 to a final concentration of 100 nM, and the concentration of tryptophan varied from 0.15-24.5 mM. Reactions proceeded for 6 minutes.
To gain insight into the substrate selectivity of CLOSPO_02083, the basic kinetic parameters were measured for CLOSPO_02083-catalyzed decarboxylation of the aromatic amino acids Trp, Tyr, and phenylalanine (Phe). To determine kcat and Km for CLOSPO_02083, the concentration of the amino acid substrate was varied under initial velocity conditions (FIGS. 3C and 4A).

RUMGNA_01526 [6] = biological target: T1, RUMGNA_01526; type: biochemical, Ruminococcus gnavus
Method: as §3
To determine the kinetic parameters for the decarboxylation of tryptophan by RUMGNA 01526, RUMGNA_01526 was added to a final concentration of 10 nM, and kcat and Km were determined by varying the concentration of tryptophan from 0.15-10 mM. Reactions proceeded for 7 minutes and were quenched as described. 100 μL of the quenched reaction was analyzed by HPLC. Peak areas were integrated and compared with a standard curve to calculate product concentration. Triplicate measurements were made from a single batch of purified enzyme. Initial velocity data were fit to the Michaelis-Menten equation by using the program GraphPad. The allosteric sigmoidal model was used by fitting to the Hill equation: y=vmax*x^h/(K0.5^h+x^h), where h is the Hill coefficient and K0.5 is the apparent concentration at half maximal velocity.
as §4
Basic kinetic parameters were measured for the decarboxylation of Trp, Tyr, and Phe by RUMGNA_01526.

[7] = test system: proximal colon, stripped of external muscle layers; assay: Ussing chamber short circuit current of proximal colon from GF, HM and CR mice; conditions: HM or CR mice
5HTR4 = conditions: for response (Δ Isc) to mucosal application / response (Δ Isc) to serosal application: 5HTR4 KO mice
Method: The response to […] (5HT; 0.003-300 μM) on the mucosal or serosal side and tryptamine (0.003-3000 μM) on the mucosal or serosal side was determined in segments of proximal colon, stripped of external muscle layers, from both 5HTR4 KO and WT mice.

[8] = test system: full-thickness colonic segments; assay: Open organ bath intraluminal pressure of mouse colonic segments ex vivo
Method: Preparations of full-thickness colonic segments (˜1.5 cm) were allowed to equilibrate in 37° C. Kreb's-jacketed organ baths with their distal ends opening to a pressure transducer and maintained under basal pressure of 5-cm column of vehicle (RL). The proximal end was closed during pressure recordings but opened to allow luminal infusion of vehicle or tryptamine in solution (100 μM, 1 mM and 3 mM; 10 minutes per treatment; n=5-7 mice).

[9] = test system: proximal-mid colon, stripped of external muscle layers; assay: Ion secretion from the murine colon, Ussing chamber short circuit current; design: species or system SvEv129 mice; conditions: 3 mM tryptamine, mucosal side
Method: A segment of proximal-mid colon, stripped of external muscle layers from each of three SvEv129 mice was mounted in 0.3 cm^2 area, 4 mL Ussing chamber. […] (FIG. 6).
The function of tryptamine in the context of microbe-host signaling in the gut was examined. An experiment to test whether tryptamine is capable of inducing ion secretion by intestinal epithelial cells was performed. Using an Ussing chamber, a segment of proximal-mid murine colon mucosa was exposed to two concentrations of tryptamine and the change of short circuit current was measured.

[10] = at the highest concentration of Tyr tested
[11] = any of the tryptamine concentrations
[12] = 1 μM enzyme, 2.28 mM tyrosine, 90 minutes

With N[C@@](CF)(Cc1c[nH]c2ccccc12)C(=O)O [(S)-α-FMT, (S)-α-fluoromethyltryptophan] the Ki (RUMGNA_01526 [1]) was 178 µM, the kinact (RUMGNA_01526 [1]) was 0.02 s⁻¹ and the Ki (CLOSPO_02083 [2]) was 200 nM. For the same compound, the kinact (CLOSPO_02083 [2]) was 0.00167 s⁻¹.
CC(=O)OCC[N+](C)(C)C [ACh, Acetylcholine] was tested, and the EC50 ([3]; GF mice) was 20.6 ± 3 µM, the EC50 ([3]; HM mice) was 22.7 ± 9 µM and the “Emax (Δ Isc)” value ([3]; GF mice) was 261±38 μA/cm^2. For the same compound, the “Emax (Δ Isc)” value ([3]; HM mice) was 299±27 μA/cm^2.
CCCC(=O)O [Butyrate, butyrate] was tested, and the “Tph1 mRNA induction above controls” value ([4]; butyrate 500 μM) was 3.5 fold and the “Tph1 mRNA induction above controls” value ([4]; butyrate 1 mM) was 2.5 fold.
In the case of N[C@@H](Cc1ccccc1)C(=O)O [Phe, phenylalanine], the “decarboxylation of Phe by CLOSPO_02083” value (CLOSPO_02083 [5]; 1 μM enzyme) is reported as “undetectable” and the “decarboxylation of Phe by CLOSPO_02083” value (CLOSPO_02083 [5]; 1 μM enzyme, listed as phenylalanine) is reported as “not observed”.
With N[C@@H](Cc1c[nH]c2ccccc12)C(=O)O [Trp, tryptophan] the “Km for Trp relative to Phe (lower)” value (RUMGNA_01526 [6]; RUMGNA_01526) was 70 fold, the “catalytic efficiency for Trp relative to Phe” value (RUMGNA_01526 [6]; RUMGNA_01526) was > 1000 fold and the “kcat for Trp relative to Phe (higher)” value (RUMGNA_01526 [6]; RUMGNA_01526) was 19 fold. For the same compound, the “efficiency of decarboxylating Trp relative to Tyr” value (RUMGNA_01526 [6]; [10]) was 1000 fold, the kcat (RUMGNA_01526 [6]; decarboxylation of Trp by RUMGNA_01526) was 4400 min⁻¹ and the Km (RUMGNA_01526 [6]; decarboxylation of Trp by RUMGNA_01526, 10 nM enzyme, 37° C.) was 1.1 ± 0.1 mM. The “efficiency of decarboxylating Trp relative to Tyr” value (CLOSPO_02083 [5]; [10]) was 600 fold, the kcat (CLOSPO_02083 [5]; decarboxylation of Trp by CLOSPO_02083) was 1200 min⁻¹ and the Km (CLOSPO_02083 [5]; decarboxylation of Trp by CLOSPO_02083, 100 nM enzyme, 37° C.) was 2.8 mM.
For CC(=O)O [acetate], the Tph1 expression induction ([4]; acetate 10 mM) was 2.5 fold, the Tph1 expression induction ([4]; acetate 30 mM) was 3.2 fold and the Tph1 expression induction ([4]; acetate 50 mM) was 2.2 fold.
With NCCc1c[nH]c2ccc(O)cc12 [serotonin, 5-hydroxy tryptamine, reference compound] the “biological effect in the presence of 5HT3 receptor antagonist” value [7] was “blocked the biological effect”, the “biological effect in the presence of 5HT4 receptor antagonist” value [7] was “blocked the biological effect” and the “maximal response (Emax) in the presence of 5HT3 receptor antagonist” value [7] was “can be blocked”. For the same compound, the “maximal response (Emax) in the presence of 5HT4 receptor antagonist” value [7] was “can be blocked”, the “response (Δ Isc) to mucosal application” value (5HTR4) was “no response” and the “response (Δ Isc) to serosal application” value (5HTR4) was “decreased responsiveness”. For the same compound, the “cumulative concentration response curves (intestinal secretion)” value [3] was “significantly higher in GF compared to HM and CR”.
For NCCc1c[nH]c2ccccc12 [tryptamine], the “biological effect in the presence of 5HT3 receptor antagonist” value [7] was “did not block”, the “biological effect in the presence of 5HT4 receptor antagonist” value [7] was “blocked the biological effect” and the “maximal response (Emax) in the presence of 5HT3 receptor antagonist” value [7] was “is not blocked”. For the same compound, the “maximal response (Emax) in the presence of 5HT4 receptor antagonist” value [7] was “can be blocked”, the “response (Δ Isc) to mucosal application” value (5HTR4) was “no response” and the “response (Δ Isc) to serosal application” value (5HTR4) was “no response”. The “Δ Isc response” value (5HTR4; mucosal application of 3000 μM, 5HTR4 WT mice, maximum response not reached) was 99.5±30.7, the “Emax (Δ Isc)” value (5HTR4; serosal application, 5HTR4 WT mice) was 110±17 μA/cm2 and the “contractile duration, measured at half amplitude, vs vehicle” value ([8]; any of the luminal tryptamine treatments) was “not significantly different”. For the same compound, the “contractile magnitude, area under the curve, vs vehicle” value [8, 11] was “not significantly different”, the “mean contractile amplitude vs vehicle” value [8, 11] was “not significantly different” and the “contractile frequency vs vehicle controls” value ([8]; luminal 100 μM, 1 mM and 3 mM) was “not significantly different”. For the same compound, the contractile frequency ([8]; luminal 1 mM tryptamine, vehicle control 4.1±0.6, P=0.15) was 5.9±0.8, the “cumulative concentration response curves (intestinal secretion)” value [3] was “significantly higher in GF compared to HM and CR” and the “change in short circuit current (ion secretion)” value [9] was “significant change in short circuit current; also recorded: significant increase”. For the same compound, the “alteration of Tph1 mRNA levels” value ([4]; 1 μM, 5 μM, 10 μM and 20 μM, 6 hours) was “None of the tested tryptamine concentrations (1 μM, 5 μM, 10 μM, and 20 μM) reproducibly showed a significant alteration”.
For N[C@@H](Cc1ccc(O)cc1)C(=O)O [tyrosine], the “decarboxylation of tyrosine by RUMGNA_01526” value (RUMGNA_01526 [6]; [12]) was “observed” and the “decarboxylation of tyrosine by CLOSPO_02083” value (CLOSPO_02083 [5]; [12]) was “observed”.
